Read-outs that look alike come from different tables or passages of the source.
Experiments:
[1] = target: T1, gastrin-releasing peptide receptor (GRPR) (Homo sapiens, UniProt P30550); assay: Competitive displacement assay on stably GRPR-transfected HEK cells using [125I]-Tyr4-bombesin; assay type: binding; conditions: [125I]-Tyr4-bombesin as competitor, 1 h, ambient temperature, read-out: IC50 (GRPR affinity)
T1 construct: host or cells: Human Embryonic Kidney 293 cells (HEK-GRPR)
Procedure: (§1) Competitive receptor binding assay
(§2) Stably GRPR-transfected Human Embryonic Kidney 293 cells (HEK-GRPR) were cultured at 37°C in Dulbecco’s Modified Eagle’s Medium (DMEM, high glucose, GlutaMax-I, 500 mL) […]
(§3) a humidified atmosphere containing 5 % CO2. The medium was exchanged every two or three days and cells were split at >75 % confluence. In vitro binding affinities were determined via competitive displacement experiments which were performed at least trice, each experiment performed in triplicate. A Millipore Multiscreen punch kit and Millipore 96 well filter plates (pore size 1.2 µm) were used. The plates were incubated with PBS/BSA (1%) solution (each well 200 µL) for one hour before use. HEK-GRPR cells were harvested and suspended carefully in Opti-MEM I (GlutaMAX I) medium. 50 µL of a cell suspension containing 105 cells were seeded in each well. To this, a total volume of 50 µL was added to each well, containing 25 µL (0.012 […]
The competitor was added in 11 increasing concentrations ranging from 0.25 – 500 nM for 6 – […]
binding of the radioligand. After one hour of incubation at ambient temperature, the solution was filtrated and the filters were washed with cold PBS (3 times). The filters were collected and […]

[2] = LogD determination of 68Ga-labeled MIUs and bioconjugates (water/1-octanol partition, γ-counter); conditions: pH 7.4
Procedure: Following the synthesis of the MIUs 6 a–13 a and the corresponding bioconjugates 6–13, the radiolabeling efficiency of the compounds with ^68Ga^3+ was investigated. […] In the following, we investigated the lipophilicity of the MIUs [^68Ga]6 a–[^68Ga]13 a and their bioconjugates [^68Ga]6–[^68Ga]13 (Table 1 and Figure 2 C,D).
(§4) A solution of the respective multimodal imaging unit (MIU) 6a – 13a (5 nmol) or multimodal imaging agent 6 - 14 (5 nmol) in H2O (Tracepur quality, 1mM) was added to 90 - 120 MBq of [68Ga]GaCl in a solution obtained by fractioned elution of an IGG 68Ge/68Ga generator system […]
(§5) with HCl (0.1 M, 1.6 mL) and subsequent titration to pH 3.5 – 4.2 by addition of sodium acetate solution (1.25 M, 50 – 75 µL). All labeling experiments were performed by addition of 2 mg ascorbic acid to suppress radiolysis-induced product fragmentation. In the labeling experiments of the MIUs 6a – 13a, 1 - 4 mg TCEP x HCl were added and the pH was adjusted to 3.5 – 4.2 by addition of sodium acetate solution (1.25 M). After reaction for 10 min at 45°C, the reaction mixtures were analyzed by analytical radio-HPLC.
(§6) For 68Ga-6/6a – 68Ga-13/13a, the water/1-octanol partition coefficient (log ) was determined by […]
(§7) adding 5 µL of the respectively 68Ga-labeled compound (0.8 – 1.2 MBq) to a mixture of phosphate buffer (0.05 M, pH 7.4, 795 µL) and 1-octanol (800 µL). The mixtures were intensively shaken for 5 minutes on a vibrating plate. After subsequent centrifugation at 13 000 rpm for 5 min, 125 µL were taken from each phase and measured in a γ-counter. The logD values were calculated from three or four independent experiments, each performed in triplicate.
For 14, the water/1-octanol partition coefficient (logD) was determined by semipreparative HPLC.
For this purpose, 10 µL solution (c = 5 x 10-4 mol/L) of the substance were added to a mixture of 1 mL 1-octanol and 990 µL phosphate buffered solution (0.05 M, pH 7.4) and the mixture was vigorously shaken for 5 minutes. After centrifugation, the phases were separated and both phases were analyzed by semipreparative HPLC. The logD was determined by three separate measurements, each experiment performed in triplicate.
as §1, §2
as §3, with “Opti-” for “Opti-MEM I (GlutaMAX I) medium. 50 µL of a cell suspension containing 105 cells were seeded in each well. To this, a total volume of 50 µL was added to each well, containing 25 µL (0.012”

PC-3 cells = assay: Confocal fluorescence microscopy on GRPR-positive PC-3 cells; assay type: cell-based, human; conditions: 10 μM, 4 h incubation
Procedure: Figure 4 Confocal fluorescence microscopy images for pyridinium-based bioconjugate […]). […] (B) NIR detector window (660-720 nm, 6). (C) Transmitted light. […] After one hour of incubation at ambient temperature, the solution was filtrated and the filters were washed with cold PBS (3 times). The filters were collected and measured by γ-counting. […] were calculated by fitting the obtained data via a nonlinear regression analysis using GraphPad Prism Software (v5.04). […] PC-3 cells were cultured at 37°C in RPMI 1640 medium supplemented with 10% FCS, 1% L-Glutamine and 1% PenStrep in a humidified atmosphere containing 5% CO2. […] Fluorescence microscopy was performed on a Leica TCS SP8 confocal microscope with laser excitation wavelengths of 405 and 638 nm. Overlays of microscopies were generated directly with the operating software or afterwards using FIJI software (v1.50e). PC-3 cells (4 x 104) were seeded two days prior to the measurements in six-well culture plates, each well was equipped with cover slips for microscopy. Medium was exchanged after 24h. After 2 days, the medium was removed and the cells were washed carefully with PBS. Then, 1 mL of a 10 μM solution of 6 in antibiotic-free medium was added, followed by incubation for 4h. […]

[3] = Photophysical properties (absorption and emission spectra in PBS); assay type: physicochemical
Description: After studying the chemical and biological properties of the MIUs and their corresponding multimodal imaging agents, the photophysical properties of the substances were finally under investigation. Here, we found no significant decrease or shift of the optical and fluorescent characteristics of the bioconjugates compared to the MIUs (Table 2).
Fig. S27 Normalized absorption and emission spectra of 7 (left) and 7a (right), recorded in PBS
at a concentration of c = 1.0 x 10-5 mol/L, emission wavelength stated in the graph (bottom, left
Fig. S28 Normalized absorption and emission spectra of 8 (left) and 8a (right), recorded in PBS
Fig. S29 Normalized absorption and emission spectra of 9 (left) and 9a (right), recorded in PBS […]
Fig. S30 Normalized absorption and emission spectra of 10 (left) and 10a (right), recorded in
PBS at a concentration of c = 1.0 x 10-5 mol/L, emission wavelength stated in the graph (bottom,
Fig. S31 Normalized absorption and emission spectra of 11 (left) and 11a (right), recorded in
Fig. S32 Normalized absorption and emission spectra of 12 (left) and 12a (right), recorded in […]

[4] = assay type: physicochemical; conditions: pH 7.4
Procedure: as §4, §5, §6
as §7, with “The mixtures were intensively shaken for 5 minutes on a vibrating plate.” left out
For 14, the water/1-octanol partition coefficient (logD) was determined by semipreparative HPLC. […]

T1 sequence (P30550 whole entry, species assumed): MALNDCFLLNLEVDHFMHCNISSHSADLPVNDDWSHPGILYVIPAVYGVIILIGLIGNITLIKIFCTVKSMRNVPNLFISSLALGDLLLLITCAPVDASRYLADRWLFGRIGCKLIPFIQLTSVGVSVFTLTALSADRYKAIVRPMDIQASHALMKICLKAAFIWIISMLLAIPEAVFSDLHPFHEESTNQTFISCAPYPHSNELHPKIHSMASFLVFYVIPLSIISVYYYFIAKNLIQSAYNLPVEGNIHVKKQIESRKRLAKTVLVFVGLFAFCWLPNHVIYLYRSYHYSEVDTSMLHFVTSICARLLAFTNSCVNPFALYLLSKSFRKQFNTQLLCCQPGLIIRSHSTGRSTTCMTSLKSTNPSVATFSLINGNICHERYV

IC50 [1] [nM] | logD [4] | SMILES | logD [2] | cellular localization of the agent (PC-3 cells) | Log ϵ ([3]; 1×10^−5 mol L^−1) [M ^−1 cm^−1] | λ max ([3]; 1×10^−5 mol L^−1) [nm] | λem ([3]; 1×10^−5 mol L^−1, excitation wavelength λex=400 nm) [nm]
19 ± 1.13 | – | CSCC[C@H](NC(=O)[C@H](CC(C)C)NC(=O)[C@H](Cc1c[nH]cn1)NC(=O)CNC(=O)[C@@H](NC(=O)[C@H](C)NC(=O)[C@H](Cc1c[nH]c2ccccc12)NC(=O)[C@H](CCC(N)=O)NC(=O)CCOCCOCCOCCOCCNC(=O)CON=Cc1ccc(C(=O)NCCCN(CCCNC(=O)c2ccc(C=NOCC(=O)NCCOCCOCCOCCOCCC(=O)N[C@@H](CCC(N)=O)C(=O)N[C@@H](Cc3c[nH]c4ccccc34)C(=O)N[C@@H](C)C(=O)N[C@H](C(=O)NCC(=O)N[C@@H](Cc3c[nH]cn3)C(=O)N[C@@H](CC(C)C)C(=O)N[C@@H](CCSC)C(N)=O)C(C)C)cc2)CC(=O)N[C@H](CSC2CC(=O)N(CCN3C(=O)CC(SC[C@H](NC(=O)[C@H](CCCC[n+]4c(C)cc(/C=C/c5cc6c7c(c5)CCCN7CCC6)cc4C)NC(=O)CC[C@H](C(=O)O)N4CCN(CC(=O)O)CCN(CC(=O)O)CC4)C(N)=O)C3=O)C2=O)C(=O)NCCOCCOCC(N)=O)cc1)C(C)C)C(N)=O (some centres unmarked) [Compound 6] | -1.71 ± 0.05 | cytoplasmic localization | 4.08 | 510 | 630
18.7 ± 1.37 | -0.88 ± 0.04 | CSCC[C@H](NC(=O)[C@H](CC(C)C)NC(=O)[C@H](Cc1c[nH]cn1)NC(=O)CNC(=O)[C@@H](NC(=O)[C@H](C)NC(=O)[C@H](Cc1c[nH]c2ccccc12)NC(=O)[C@H](CCC(N)=O)NC(=O)CCOCCOCCOCCOCCNC(=O)CON=Cc1ccc(C(=O)NCCCN(CCCNC(=O)c2ccc(C=NOCC(=O)NCCOCCOCCOCCOCCC(=O)N[C@@H](CCC(N)=O)C(=O)N[C@@H](Cc3c[nH]c4ccccc34)C(=O)N[C@@H](C)C(=O)N[C@H](C(=O)NCC(=O)N[C@@H](Cc3c[nH]cn3)C(=O)N[C@@H](CC(C)C)C(=O)N[C@@H](CCSC)C(N)=O)C(C)C)cc2)CC(=O)N[C@H](CSC2CC(=O)N(CCN3C(=O)CC(SC(C)(C)C)C3=O)C2=O)C(=O)NCCOCCOCC(N)=O)cc1)C(C)C)C(N)=O (some centres unmarked) [Compound 14] | – | – | – | – | –
